In patent US20100004325A1, “Use of Baicalein As Prolyl Hydroxylase 2 Inhibitor” (Korea Institute of Science and Technology, priority 2007, published 2010):
Where “and” joins values, the source holds several entries; their conditions need not be identical. Equal values may be shown once.

Experiments:
[1] = tested on: VEGF; assay: VEGF mRNA expression in HepG2 cells, RT-PCR; type: cell-based; conditions: HepG2, normoxia
Method: In order to examine the expression of VEGF known as a representative target gene of the HIF-1α, RT-PCR was conducted as follows. In normoxia, DMSO was treated to HepG2 cells as a negative control, and its influence was observed. As a positive control, HepG2 cells were cultured in hypoxia for 16 hours. In order to amplify cDNA of VEGF mRNA expressed in the cell, the RNA of the cultured cell was subjected to RT-PCR by using forward primer (5′-ccatgaactttctgctdtctt-3′, SEQ ID NO: 5) and reverse primer (5′-[…]-3′, SEQ ID NO: 6). Further, in order to amplify cDNA of 18s rRNA, the RNA of the cultured cell was subjected to RT-PCR by using forward primer (5′-[…]-3′, SEQ ID NO: 7) and reverse primer (5′-[…]-3′, SEQ ID NO: 8) (Table 2).
The amplified product was subjected to electrophoresis on 1.5% agarose-gel, and the mRNA expression was quantitated by phosphoimager (Model Las3000, Fuji) (see FIG. 6a).

[2] = tested on: VEGF; assay: VEGF secretion by HeLa cells, ELISA; type: cell-based, human; conditions: 20 μM baicalein, 16 hours, compared with DMSO control
Method: In order to examine the secretion change of the VEGF protein known as a secretion protein synthesized in a cell, its cell culture solution was subjected to ELISA as follows. Specifically, HeLa cells aliquoted on a 24-well plate were cultured for 24-48 hour, and DMSO, CoCl2 (200 μM), DFO (125 μM) and baicalein (20 μM) were treated thereto, respectively. After culturing for 16 hours, the cell solution was recovered and centrifuged to separate supernatant. The supernatant was aliquoted on an antibody-coated well plate using human VEGF Quantikine ELISA kit (R&D Systems) to monitor the amount of VEGF in the supernatant. Then, an antibody for VEGF was treated to each well, followed by measuring the amount of the VEGF using luminometer.

[3] = target: T1, PHD2 (Homo sapiens, UniProt Q9GZT9); assay: Proline hydroxylation of B-P564 peptide by PHD2, MALDI mass spectrometry; type: biochemical; conditions: 800 μM baicalein, 1.4 μg/μl PHD2, 2 hours, room temperature
T1 construct: made in house; host or cells: E. coli BL21 (DE3), pGEX-4T-1
Method: For the analysis of proline hydroxylation, 800 μM of baicalein and 1.4 μg/μl of PHD2 were mixed in a buffer (20 mM Tris-HCl, pH 8.0, 100 mM NaCl, 1 mM EDTA, 1 mM PMSF, 0.5% NP-40) supplemented with ascorbic acid (final concentration: 400 μM) and α-ketoglutarate (final concentration: 100 μM). Then, 3 μM of the B-P564 peptide was added to the resulting mixture, and reacted at room temperature for 2 hours. Excess salts in the enzyme reactant were removed by ZipTipC18 (Millipore), and the eluted reactant was analyzed by MALDI mass spectrometry.

[4] = tested on: HIF-1α; assay: HIF-1α protein expression in HepG2 cells, western blotting; type: cell-based; conditions: HepG2, normoxia, 6 hours; increase similar to HIF-1α in hypoxia
Method: In order to examine the change of the HIF-1α protein expression by baicalein in a cell, HepG2 strain was grown to 80% confluence on a 60 mm tissue culture plate. Baicalein with increasing concentrations was added to the cultured cell and further cultured in normoxia for 6 hours, and as controls, same cell mixtures were cultured in hypoxia. The cells were washed with 4° C. phosphate based saline buffer, and eluted with radioimmunoprecipitation analysis solution containing 150 mM NaCl, 1% Nonidet P-40, 0.5% deoxycholate, 0.1% SDS, 50 mM Tris (pH 7.4). 100 μg/ml PMSF, 10 μg/ml leupeptin, 1 μg/ml antipain, 10 μg/ml aprotinin, 50 mM β-glycerophosphate, 25 mM NaF, 20 mM EGTA, 1 mM DTT and 1 mM Na3VO4. Then, the cells were centrifuged, and the cell extracts thus obtained were quantified by Bradford protein assay. In order to perform the immunoblot against HIF-1α, 20 μg of the cell extract was suspended in SDS sample buffer, and heated in a water bath for 5 min to completely solublize the protein structure. […] The membrane was treated with ECL solution and exposed to X-ray film for 5 min, and finally the HIF-1α protein was detected, and subjected to luminescence image analyzer (Model LAS-3000, Fuji) for detailed analysis.

[5] = target: T2, F-HyP564 peptide / VBC protein (Homo sapiens, UniProt P40337); assay: Fluorescence polarization of F-HyP564 peptide bound to VBC protein (counter-test); type: binding
T2 construct: made in house; host or cells: E. coli BL21 (DE3), co-expression of pGEX4T-VHL-EB and pDEV-EC (pET29b)

[6] = target: T3, FIH1 (Homo sapiens, UniProt Q9NWT6); assay: Asparagine hydroxylation of F-N803 peptide by FIH1, MALDI mass spectrometry; type: biochemical; conditions: 20 μM baicalein, 0.55 μg/μl His-FIH1, 2 hours, room temperature
T3 construct: made in house; host or cells: E. coli BL21 (DE3), pET-28a
Method: Further, in order to examine the inhibitory activity of baicalein against FIH1, 20 μM of baicalein and 0.55 μg/μl of His-FIH1 were mixed in a buffer (50 mM Tris-HCl, pH 7.5, 5 mM KCl, 1.5 mM MgCl2) supplemented with ascorbic acid (final concentration: 400 μM) and α-ketoglutarate (final concentration: 100 μM). Then, 4 μM of the F-HIF-1α peptide containing the 788th-822nd amino acid was added to the resulting mixture, and reacted at room temperature for 2 hours. Excess salts in the reactant were removed by ZipTipC18, and the eluted reactant was analyzed by MALDI mass spectrometry.

[7] = tested on: HIF-1α binding to hypoxia-response element (HRE); assay: p(HRE)4-luciferase reporter assay in HeLa cells; type: cell-based; conditions: 20 μM baicalein, 16 hours
Method: In order to examine the binding of the HIF-1α stabilized by baicalein in normoxia with HRE existed on a target gene, luciferase assay was conducted as follows. Specifically, HeLa cells (5×10^4 cells/well) were cultured on a 24-well plate, and 100 ng of p(HRE)4-luciferase plasmid and 50 ng of β-galactosidase expression vector, pCHO110, were co-transfected thereinto. As a control to 20 μM of baicalein, DFO (deferoxamine) and CoCl2 were added to the cells, respectively, and cultured for 16 hours. The cell extract was obtained, and the luciferase activity thereof was measured by luminometer (Tuner Designs).
The value was normalized for the β-galactosidase activity value and the total amount of protein measured by BCA protein analysis (Sigma).

[8] = tested on: 12-lipoxygenase; conditions: Daotai et al., JBC 281; cited from earlier work
[9] = target: T1, PHD2; assay: Fluorescence polarization assay of PHD2-mediated hydroxylation of F-P564 peptide (binding to VBC protein); type: biochemical; conditions: proline hydroxylation 20 min, baicalein 0 to 200 μM, 500 nM VBC protein; read-out: concentration of baicalein that results in 50% inhibition of the PHD2 activity (IC50)
Method: In order to screen a PHD2 inhibitor, 1040 compounds having biological activities (NINDS Custom Collection II, MicroSource Discovery Systems) were used. First, 1 μl of each compound was aliquoted into a 1.5 ml tube at the final concentration of 20 μM. Then, GST-PHD2 (final concentration: 0.2-0.3 μg/μl) was mixed with the each compound, followed by adding a buffer (20 mM Tris-HCl, pH 8.0, 100 mM NaCl, 1 mM EDTA, 1 mM PMSF, 0.5% NP-40) thereto. […]
[…] After mixing at room temperature, the resulting mixture was transferred to a 96-well plate, and fluorescence polarization was measured by using VICTOR (Perkin-Elmer).
After obtaining the fluorescence polarization value of the mixture of the F-Hy564 peptide ([…]) in the buffer by VICTOR, the PHD2 inhibitory activity of each compound was represented in percentage based on that the fluorescence polarization value. 26 compounds with at least 60% of PHD2 inhibitory activity were randomly selected. […]
In order to examine the PHD2 inhibitory activity of baicalein, proline hydroxylation was performed for 20 min with increasing final concentrations of baicalein from 0 to 200 μM. […] Fluorescence polarization of the resulting mixture was measured by using a fluorometer (Perkin-Elmer), and the size of slit was 6 nm and the integration time was 5 sec.

hydroxylation of the proline residue of B-P564 peptide [3]: not hydroxylated
fluorescence polarization value of F-HyP564 peptide with VBC protein ([5]; baicalein at the highest concentration, 500 nM VBC protein): did not decrease
effect on interaction of F-HyP564 with the VBC protein (fluorescence polarization) ([5]; up to 20 μM of baicalein): did not affect
hydroxylation of the asparagine residue of F-HIF-1α peptide (788th-822nd amino acid) [6]: not hydroxylated
IC50 [9]: ~15 µM and 15 µM
SMILES: O=c1cc(-c2ccccc2)oc2cc(O)c(O)c(O)c12 [baicalein]
amount of the expressed VEGF (FIGS. 6a and 6b) [1]: increases
amount of VEGF in the supernatant [2]: significantly increase
concentration of baicalein at which HIF-1α protein expression increased [4]: more than 50 μM
luciferase activity normalized for total protein amount [7]: a similar result was obtained
activity of 12-lipoxygenase [8]: inhibits
